Here are results for 3 compounds from ChEMBL document CHEMBL1159226, “Xestobergsterol C, a new pentacyclic steroid from the Okinawan marine sponge Ircinia Sp. and absolute stereochemistry of xestobergsterol A” (J Nat Prod, 1995).

In general, IC50 refers to the midpoint of a concentration-inhibition curve.

The structures appear in SMILES notation. Values after ≈ are worked out from the molar mass of the structure shown.

The test system of the test is L1210. Nature of the test: Cytotoxicity against mouse L1210 cells. The format is functional, cell-based.
`CC(C)C[C@@]1(O)C[C@@H](C)[C@H]2[C@@H]1C(=O)[C@H]1[C@@H]3[C@@H](O)[C@H](O)[C@H]4C[C@H](O)[C@@H](O)C[C@]4(C)[C@H]3CC[C@]21C`: inhibition was half-maximal at 4.1 µg/mL (≈ 8.82 µM) (IC50). For the compound `CC(C)C[C@@]1(O)C[C@@H](C)[C@H]2[C@@H]1C(=O)[C@H]1[C@@H]3[C@@H](O)[C@H](O)[C@H]4C[C@H](O)[C@@H](O)[C@@H](O)[C@]4(C)[C@H]3CC[C@]21C`, the 50% inhibitory concentration (IC50) is above 10 µg/mL. `CC(C)C[C@@]1(O)C[C@@H](C)[C@H]2[C@@H]1C(=O)[C@H]1[C@@H]3[C@@H](O)[C@H](O)[C@H]4C[C@H](O)CC[C@]4(C)[C@H]3CC[C@]21C` came in with an IC50 of 4 µg/mL (≈ 8.92 µM).
